target: T1, Axl (Homo sapiens, UniProt P30530); assay: Phospho-Akt in-cell Western assay (inhibition of Axl activity, Axl-antibody cross-linking stimulation); type: cell-based; conditions: Hela cells, phospho-Akt readout; compounds of formula (Ia), Table 1
T1 construct: endogenous in cells; host or cells: HeLa cells
T1 sequence (P30530 26-894): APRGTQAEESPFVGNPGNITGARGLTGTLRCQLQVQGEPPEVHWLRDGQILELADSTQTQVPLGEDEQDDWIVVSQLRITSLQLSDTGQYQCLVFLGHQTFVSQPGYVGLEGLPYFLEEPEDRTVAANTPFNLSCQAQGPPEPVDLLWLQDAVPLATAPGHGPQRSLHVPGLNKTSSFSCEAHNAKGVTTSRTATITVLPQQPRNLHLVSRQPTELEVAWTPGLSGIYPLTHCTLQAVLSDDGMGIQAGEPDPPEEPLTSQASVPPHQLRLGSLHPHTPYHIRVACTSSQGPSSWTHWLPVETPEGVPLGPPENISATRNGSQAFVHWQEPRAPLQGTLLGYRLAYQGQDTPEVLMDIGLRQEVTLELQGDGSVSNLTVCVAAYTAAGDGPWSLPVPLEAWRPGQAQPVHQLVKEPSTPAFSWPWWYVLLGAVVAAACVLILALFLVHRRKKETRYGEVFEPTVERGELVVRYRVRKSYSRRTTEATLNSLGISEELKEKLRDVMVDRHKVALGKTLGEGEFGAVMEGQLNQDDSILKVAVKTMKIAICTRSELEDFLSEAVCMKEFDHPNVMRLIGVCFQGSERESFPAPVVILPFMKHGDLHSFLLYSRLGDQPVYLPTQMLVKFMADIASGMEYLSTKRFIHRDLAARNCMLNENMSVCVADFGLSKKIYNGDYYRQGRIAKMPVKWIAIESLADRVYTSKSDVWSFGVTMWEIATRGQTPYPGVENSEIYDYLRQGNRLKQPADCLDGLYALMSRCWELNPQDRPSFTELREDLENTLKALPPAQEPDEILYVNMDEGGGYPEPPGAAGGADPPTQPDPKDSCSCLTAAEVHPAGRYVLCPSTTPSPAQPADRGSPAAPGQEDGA
Experimental: The compounds of the invention were tested in the following assay for their ability to inhibit Axl activity.
Phospho-Akt in-Cell Western Assay
• Cell culture plate: 96 well assay plate (Corning 3610), white, clear bottom, tissue-culture treated. • Cells: Hela cells. • Starvation medium: For Axl stimulation: 0.5% FCS (fetal calf serum) in DMEM, plus Axl/Fc (extracellular domain of AXL fused to immunoglobulin Fc region) (R&D, 154-AL) 500 ng/mL. • For EGF (epidermal growth factor) stimulation: 0.5% FCS in DMEM (Dulbecco's modified Eagles medium). • Poly-L-Lysine 0.01% solution (the working solution): 10 μg/ml, dilute In PBS (phosphate buffered saline). • Axl antibody cross-linking: • 1st: Mouse anti-Axl (R&D, MAB154). • 2nd: Biotin-SP-conjugated AffiniPure goat anti-mouse IgG (H+L) (Jackson ImmunoResearch #115-065-003). • Fixing buffer: 4% formaldehyde in PBS. • Wash buffer: 0.1% TritonX-100 in PBS. • Quenching buffer: 3% H2O2, 0.1% Azide in wash buffer, Azide and hydrogen peroxide (H2O2) are added fresh. • Blocking buffer: 5% BSA in TBST (tris buffered saline plus 0.1% Tween 20). • Primary antibody: Rabbit anti-human Phospho-Akt antibody (Cell Signaling 9271): 1×250 diluted in blocking buffer. • Secondary antibody: HRP (horse radish peroxidase)-conjugated Goat anti-Rabbit secondary, stock solution: Jackson ImmunoResearch (Goat anti-Rabbit HRP, #111-035-144) 1:1 diluted in glycerol, store at −20° C. The working solution: 1×2000 dilution of stock in blocking buffer. • Chemiluminescent working solution (Pierce, 37030): SuperSignal ELISA (enzyme linked immunosorbant assay) Pico Chemiluminescent substrate. • Crystal Violet solution: Stock: 2.5% Crystal violet in methanol, filtered and kept at ambient temperature. The working solution: dilute the stock 1:20 with PBS immediately before use.
10% SDS: working solution: 5% SDS (sodium dodecylsulfate), diluted in PBS
A 96 well TC (tissue culture treated) plate was coated with 10 μg/mL poly-L-Lysine at 37° C. for 30 min, washed twice with PBS, and air-dried for 5 minutes before cells were added. Hela cells were seeded at 10,000 cells/well and the cells were starved in 100 μL starvation medium containing Axl/Fc for 24 hrs.
The cells were pre-treated with test compounds by adding 100 μL of 2× test compound to the starvation medium on the cells. The cells were incubated at 37° C. for 1 hr before stimulation.
The cells were stimulated by Axl-antibody cross-linking as follows: A 5×1st/2nd Axl antibody mixture was made (37.5 μg/mL 1st/100 μg/mL 2 nd) in starvation medium and nutated at 4° C. with thorough mixing for 1-2 hours for clustering. The resulting mix was warmed to 37° C. 50 μL of 5×Axl 1st/2nd of antibody cluster was added to the cells and the cells were incubated at 37° C. for 5 min.
After 5 minutes stimulation, the plate was flicked to remove medium and the plate was tapped onto paper towels. Formaldehyde (4.0% in PBS, 100 μL) was added to fix the cells and the cells were incubated at ambient temperature for 20 min without shaking.
The cells were washed with a plate washer buffer to remove the formaldehyde solution. The plate was flicked to removed excess wash buffer and tapped onto paper towels. Quenching buffer (100 μL) was added to each well and the cells were incubated at ambient temperature for 20 minutes without shaking.
The cells were washed with a plate washer buffer to remove the quenching buffer. Blocking buffer (100 μL) was added and the cells were incubated at ambient temperature for at least an hour with gentle shaking.
The cells were washed with a plate washer buffer and diluted primary antibody (50 μL) was added to each well (blocking buffer was added to the negative control wells instead). The plates were incubated overnight at 4° C. with gentle shaking.
The wash buffer was removed, diluted secondary antibody (100 μL) was added, and the cells were incubated at ambient temperature for 1 hour with gentle shaking. […]

| IC50 [µM] | SMILES |
| --- | --- |
| 1 to 10 | Nc1nc(Nc2ccc3oc(CN4CCCC4)nc3c2)nn1-c1nccc2ccccc12 [compound 1, 1-(isoquinolin-1-yl)-N^3-(2-(pyrrolidin-1-ylmethyl)benzo [d]oxazol-5-yl)-1H-1,2,4-triazole-3,5-diamine] |
| > 20 | Nc1nc(Nc2ccc3c(c2)OCCO3)nn1-c1ccccc1 [compound 3, N^3-(2,3-dihydrobenzo [b][1,4]dioxin-6-yl)-1-phenyl-1H-1,2,4-triazole-3,5-diamine] |
| 1 to 10 | Nc1nc(Nc2ccc3c(c2)OCCO3)nn1-c1nccc2ccccc12 [compound 4, N^3-(2,3-dihydrobenzo [b][1,4]dioxin-6-yl)-1-(isoquinolin-1-yl)-1H-1,2,4-triazole-3,5-diamine] |
| < 1 | COc1cc2ncnc(-n3nc(Nc4ccc5c(c4)OCCO5)nc3N)c2cc1OC [compound 5, N^3-(2,3-dihydrobenzo [b][1,4]dioxin-6-yl)-1-(6,7-dimethoxy-quinazolin-4-yl)-1H-1,2,4-triazole-3,5-diamine] |
| < 1 | COc1cc2ncnc(-n3nc(Nc4ccc(N5CCN(C6CC7CCC6C7)CC5)nc4)nc3N)c2cc1OC (centres unmarked) [compound 6, 1-(6,7-dimethoxy-quinazoline-4-yl)-N^3-(6-(4-(bicyclo[2.2.1]heptan-2-yl)piperazin-1-yl)pyridin-3-yl)-1H-1,2,4-triazole-3,5-diamine] |
| < 1 | COc1cc2ncnc(-n3nc(Nc4ccc(N5CCC(N6CCN(C)CC6)CC5)nc4)nc3N)c2cc1OC [compound 8, 1-(6,7-dimethoxy-quinazoline-4-yl)-N^3-(6-(4-(4-methyl-piperazin-1-yl)piperidin-1-yl)pyridin-3-yl)-1H-1,2,4-triazole-3,5-diamine] |
| < 1 | Cc1csc2c(-n3nc(Nc4ccc(N5CCCN(C6CCCC6)CC5)nc4)nc3N)nc(Cl)nc12 [compound 10, 1-(2-chloro-7-methylthieno [3,2-d]pyrimidine-4-yl)-N^3-(6-(4-cyclopentyl-1,4-diazepan-1-yl)pyridin-3-yl)-1H-1,2,4-triazole-3,5-diamine] |
| 1 to 10 | Cc1csc2c(-n3nc(Nc4cnc5c(c4)CCN(C4CCCC4)CC5)nc3N)nc(Cl)nc12 [compound 12, 1-(2-chloro-7-methylthieno [3,2-d]pyrimidine-4-yl)-N^3-(7-cyclopentyl-6,7,8,9-tetrahydro-5H-pyrido [3,2-d]azepin-3-yl)-1H-1,2,4-triazole-3,5-diamine] |
| 10 to 20 | Cc1csc2c(-n3nc(Nc4cnc5c(c4)CN(Cc4ccccc4)CC5)nc3N)nc(Cl)nc12 [compound 18, 1-(2-chloro-7-methylthieno [3,2-d]pyrimidine-4-yl)-N^3-(6-benzyl-5,6,7,8-tetrahydro-1,6-naphthyridin-3-yl)-1H-1,2,4-triazole-3,5-diamine] |

More lines, now with the values behind:

| SMILES | IC50 [µM] |
| --- | --- |
| Nc1nc(Nc2ccc3oc(CN4CCCC4)nc3c2)nn1-c1ncnc2ccc(Cl)cc12 [compound 2, 1-(6-chloro-quinazolin-4-yl)-N^3-(2-(pyrrolidin-1-ylmethyl)benzo [d]oxazol-5-yl)-1H-1,2,4-triazole-3,5-diamine] | 1 to 10 |
| Nc1nc(Nc2ccc(N3CCN(C4CC5CCC4C5)CC3)nc2)nn1-c1nccc2ccccc12 (centres unmarked) [compound 7, 1-(isoquinolin-1-yl)-N^3-(6-(4-(bicyclo[2.2.1]heptan-2-yl)piperazin-1-yl)pyridin-3-yl)-1H-1,2,4-triazole-3,5-diamine] | < 1 |
| COc1cc2ncnc(-n3nc(Nc4ccc5c(c4)NC(=O)CCC5)nc3N)c2cc1OC [compound 9, 1-(6,7-dimethoxy-quinazoline-4-yl)-N^3-(4,5-dihydro-1H-benzo[b]azepin-2(3H)-on-8-yl)-1H-1,2,4-triazole-3,5-diamine] | 1 to 10 |
| COc1cc2ncnc(-n3nc(Nc4ccc(N5CCCN(C6CCCC6)CC5)nc4)nc3N)c2cc1OC [compound 11, 1-(6,7-dimethoxy-quinazoline-4-yl)-N^3-(6-(4-cyclopentyl-1,4-diazepan-1-yl)pyridin-3-yl)-1H-1,2,4-triazole-3,5-diamine] | < 1 |
| COc1cc2ncnc(-n3nc(Nc4cnc5c(c4)CCN(C4CCCC4)CC5)nc3N)c2cc1OC [compound 13, 1-(6,7-dimethoxy-quinazoline-4-yl)-N^3-(7-cyclopentyl-6,7,8,9-tetrahydro-5H-pyrido[3,2-d]azepin-3-yl)-1H-1,2,4-triazole-3,5-diamine] | < 1 |
| Cc1csc2c(-n3nc(Nc4cnc5c(c4)CN(C)CC5)nc3N)nc(Cl)nc12 [compound 14, 1-(2-chloro-7-methylthieno [3,2-d]pyrimidine-4-yl)-N^3-(6-methyl-5,6,7,8-tetrahydro-1,6-naphthyridin-3-yl)-1H-1,2,4-triazole-3,5-diamine] | > 20 |
| Cc1csc2c(-n3nc(Nc4ccc(N5CCN(C)CC5)nc4)nc3N)nc(Cl)nc12 [compound 15, 1-(2-chloro-7-methylthieno [3,2-d]pyrimidine-4-yl)-N^3-(6-(4-methyl-piperazin-1-yl)pyridin-3-yl)-1H-1,2,4-triazole-3,5-diamine] | < 1 |
| CN1CCc2ncc(Nc3nc(N)n(-c4nccc5ccccc45)n3)cc2C1 [compound 16, 1-(isoquinolin-1-yl)-N^3-(6-methyl-5,6,7,8-tetrahydro-1,6-naphthyridin-3-yl)-1H-1,2,4-triazole-3,5-diamine] | < 1 |
| Cc1csc2c(-n3nc(Nc4ccc(N5CCC(N6CCCC6)CC5)nc4)nc3N)nc(Cl)nc12 [compound 17, 1-(2-chloro-7-methyithieno [3,2-d]pyrimidine-4-yl)-N^3-(6-(4-(pyrrolidin-1-yl)piperidin-1-yl)pyridine-3-yl)-1H-1,2,4-triazole-3,5-diamine] | < 1 |
| CCOC(=O)N1CCc2ncc(Nc3nc(N)n(-c4nc(Cl)nc5c(C)csc45)n3)cc2C1 [compound 19, 1-(2-chloro-7-methylthieno [3,2-d]pyrimidine-4-yl)-N^3-(6-(ethylcarboxy)-5,6,7,8-tetrahydro-1,6-naphthyridin-3-yl)-1H-1,2,4-triazole-3,5-diamine] | > 20 |
| Cc1csc2c(-n3nc(Nc4cnc5c(c4)CC(C(=O)N4CCCC4)CC5)nc3N)nc(Cl)nc12 (centres unmarked) [compound 20, 1-(2-chloro-7-methylthieno [3,2-d]pyrimidine-4-yl)-N^3-(6-(pyrrolidin-1ylcarbonyl)-5,6,7,8-tetrahydro-quinolin-3-yl)-1H-1,2,4-triazole-3,5-diamine] | < 1 |

From patent publication US8796259B2, “N3-heteroaryl substituted triazoles and N5-heteroaryl substituted triazoles useful as axl inhibitors” (Rigel Pharmaceuticals, Inc., priority 2006, dated 2014)
